Data as given in ChEMBL document CHEMBL5038628, “Discovery of spiro amide SHR902275: A potent, selective, and efficacious RAF inhibitor targeting RAS mutant cancers” (Eur J Med Chem, 2022).
Values after ≈ are worked out from the molar mass of the structure shown. Active and inactive are the calls of the source. The rule behind the calls is not given here.

Assays:
[1] = molecular target: RAF proto-oncogene serine/threonine-protein kinase (Homo sapiens, UniProt P04049); assay: Inhibition of human recombinant cRAF measured after 60 mins by TR-FRET assay
NCI-H358 = assay: Cytotoxicity against human NCI-H358 cells assessed as inhibition of growth measured after 72 hrs by CellTiter-Glo luciferase assay; assay type: functional
[2] = Cmax in Sprague-Dawley rat plasma at 2 mg/kg, IG by LC-MS/MS analysis; assay type: ADME, organism-based; set-up: route […], dose 2 mg/kg; conditions: po
[3] = Half life in Sprague-Dawley rat plasma at 1 mg/kg, iv by LC-MS/MS analysis; assay type: ADME, organism-based; conditions: Sprague-Dawley, plasma
[4] = Clearance in Sprague-Dawley rat plasma at 1 mg/kg, iv by LC-MS/MS analysis; assay type: ADME, organism-based
[5] = AUC (0 to t) in Sprague-Dawley rat plasma at 2 mg/kg, IG by LC-MS/MS analysis; assay type: ADME, organism-based; set-up: dose 2 mg/kg; conditions: po
[6] = Oral bioavailability in Sprague-Dawley rat by LC-MS/MS analysis; assay type: ADME, organism-based; conditions: in vivo
[7] = molecular target: Serine/threonine-protein kinase B-raf (Homo sapiens, UniProt P15056); assay: Inhibition of human recombinant wild type BRAF measured after 60 mins by TR-FRET assay
[8] = molecular target: Serine/threonine-protein kinase B-raf (Homo sapiens, UniProt P15056, V600E); assay: Inhibition of human recombinant BRAF V600E mutant measured after 60 mins by TR-FRET assay
A-375 = assay: Cytotoxicity against human A-375 cells assessed as inhibition of growth measured after 72 hrs by CellTiter-Glo luciferase assay; assay type: functional
Calu-6 [9] = assay: Cytotoxicity against human Calu-6 cells assessed as inhibition of growth measured after 72 hrs by CellTiter-Glo luciferase assay; assay type: functional
SK-MEL-2 = assay: Cytotoxicity against human SK-MEL-2 cells assessed as inhibition of growth measured after 72 hrs by CellTiter-Glo luciferase assay; assay type: functional
[10] = Metabolic stability in human liver microsomes assessed as half life; assay type: ADME, Microsome
[11] = Metabolic stability in mouse liver microsomes assessed as half life; assay type: ADME, Microsome
[12] = Metabolic stability in rat liver microsomes assessed as half life; assay type: ADME, Microsome
[13] = Fraction unbound in human plasma; assay type: ADME, cell-free
[14] = Fraction unbound in mouse plasma; assay type: ADME, cell-free
[15] = Fraction unbound in rat plasma; assay type: ADME, cell-free
[16] = Cmax in Sprague-Dawley rat plasma at 20 mg/kg, IG by LC-MS/MS analysis; assay type: ADME, organism-based; set-up: route […], dose 20 mg/kg; conditions: po
[17] = AUC (0 to t) in Sprague-Dawley rat plasma at 20 mg/kg, IG by LC-MS/MS analysis; assay type: ADME, organism-based; set-up: dose 20 mg/kg; conditions: po
Calu-6 [18] = assay: Antitumor activity against human Calu-6 cells xenografted in nude mouse assessed as tumor growth inhibition at 5 to 30 mg/kg,IT BID for 14 days relative to control; assay type: functional, organism-based; conditions: dose 5-30 mg/kg, time 14.0 day
[19] = Toxicity in nude mouse assessed as reduction in body weight measured at 5 to 30 mg/kg,IT BID for 14 days; assay type: organism-based; conditions: in vivo, other, 336 h, dose 5-30 mg/kg, time 14 day
[20] = molecular target: T1, Eukaryotic translation initiation factor 2-alpha kinase 3 (Homo sapiens) (UniProt Q9NZJ5); assay: Inhibition of human His-tagged PERK by TR-FRET assay
T1 sequence (whole entry): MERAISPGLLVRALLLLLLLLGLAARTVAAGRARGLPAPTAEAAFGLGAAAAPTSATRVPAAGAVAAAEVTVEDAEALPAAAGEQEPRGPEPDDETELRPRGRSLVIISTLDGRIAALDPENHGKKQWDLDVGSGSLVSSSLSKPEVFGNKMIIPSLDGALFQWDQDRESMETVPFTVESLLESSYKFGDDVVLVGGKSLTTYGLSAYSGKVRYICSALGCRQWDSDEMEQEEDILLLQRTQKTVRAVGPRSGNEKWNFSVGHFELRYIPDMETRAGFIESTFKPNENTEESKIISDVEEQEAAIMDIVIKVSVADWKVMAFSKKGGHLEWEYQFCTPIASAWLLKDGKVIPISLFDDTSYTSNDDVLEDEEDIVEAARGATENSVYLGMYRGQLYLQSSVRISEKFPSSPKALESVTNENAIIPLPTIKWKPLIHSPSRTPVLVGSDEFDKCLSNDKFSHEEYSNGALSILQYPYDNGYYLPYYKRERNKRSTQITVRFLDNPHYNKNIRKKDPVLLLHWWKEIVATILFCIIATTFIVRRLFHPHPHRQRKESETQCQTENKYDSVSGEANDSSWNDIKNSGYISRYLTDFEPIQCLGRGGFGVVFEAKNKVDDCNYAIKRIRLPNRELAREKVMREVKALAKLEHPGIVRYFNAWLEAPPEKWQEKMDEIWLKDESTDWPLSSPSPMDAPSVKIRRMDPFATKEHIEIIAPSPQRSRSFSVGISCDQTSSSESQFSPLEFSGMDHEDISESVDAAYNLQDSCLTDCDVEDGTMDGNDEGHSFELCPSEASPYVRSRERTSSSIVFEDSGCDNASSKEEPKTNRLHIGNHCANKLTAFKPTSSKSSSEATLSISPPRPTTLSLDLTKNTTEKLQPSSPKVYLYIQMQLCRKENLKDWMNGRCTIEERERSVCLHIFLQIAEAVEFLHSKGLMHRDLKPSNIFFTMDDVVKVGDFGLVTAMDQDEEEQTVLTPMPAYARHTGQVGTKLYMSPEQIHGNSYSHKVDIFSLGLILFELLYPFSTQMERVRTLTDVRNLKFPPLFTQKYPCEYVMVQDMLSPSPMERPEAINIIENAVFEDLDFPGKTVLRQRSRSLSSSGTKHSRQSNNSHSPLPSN

[21] = Cmax in C57 mouse at 2 mg/kg, IG; assay type: ADME, organism-based; set-up: route […], dose 2 mg/kg; conditions: in vivo, po
[22] = Half life in C57 mouse at 1 mg/kg, iv; assay type: ADME, organism-based; conditions: in vivo
[23] = Clearance in C57 mouse at 1 mg/kg, iv; assay type: ADME, organism-based; conditions: in vivo
[24] = AUC (0 to t) in C57 mouse at 2 mg/kg, IG; assay type: ADME, organism-based; set-up: dose 2 mg/kg; conditions: in vivo, po
[25] = Oral bioavailability in C57 mouse; assay type: ADME, organism-based; conditions: in vivo
[26] = Solubility of the compound at pH 7.4; conditions: buffer
[27] = Apparent permeability across apical to basolateral membrane in human Caco-2 cells
[28] = Apparent permeability across basolateral to apical membrane in human Caco-2 cells
P-gp (ABCB1) = P-gp (ABCB1) (Homo sapiens, UniProt P08183); assay: Substrate activity at P-gp in human Caco-2 cells assessed as efflux ratio of permeability
Cytochrome P450 1A2 = molecular target: T2, Cytochrome P450 1A2 (Homo sapiens, UniProt P05177); assay: Inhibition of CYP1A2 (unknown origin)
T2 sequence (P05177 whole entry): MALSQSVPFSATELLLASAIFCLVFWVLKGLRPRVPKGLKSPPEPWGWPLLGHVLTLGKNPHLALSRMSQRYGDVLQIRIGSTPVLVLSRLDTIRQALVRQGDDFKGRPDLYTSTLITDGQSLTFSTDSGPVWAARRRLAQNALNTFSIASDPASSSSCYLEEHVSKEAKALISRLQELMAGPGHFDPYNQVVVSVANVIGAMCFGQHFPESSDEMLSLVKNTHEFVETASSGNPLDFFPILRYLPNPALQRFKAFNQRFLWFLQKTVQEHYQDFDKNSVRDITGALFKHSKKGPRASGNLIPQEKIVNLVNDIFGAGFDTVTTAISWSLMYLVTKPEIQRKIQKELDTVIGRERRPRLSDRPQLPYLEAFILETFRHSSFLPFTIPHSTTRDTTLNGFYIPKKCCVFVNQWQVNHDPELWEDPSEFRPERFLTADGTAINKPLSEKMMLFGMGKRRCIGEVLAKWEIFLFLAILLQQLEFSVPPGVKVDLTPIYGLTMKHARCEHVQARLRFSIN

Cytochrome P450 2C9 = Cytochrome P450 2C9 (Homo sapiens, UniProt P11712); assay: Inhibition of CYP2C9 (unknown origin)
Cytochrome P450 2C19 = Cytochrome P450 2C19 (Homo sapiens, UniProt P33261); assay: Inhibition of CYP2C19 (unknown origin)
Cytochrome P450 2D6 = Cytochrome P450 2D6 (Homo sapiens, UniProt P10635); assay: Inhibition of CYP2D6 (unknown origin)
Cytochrome P450 3A4 [29] = molecular target: T3, Cytochrome P450 3A4 (Homo sapiens, UniProt P08684); assay: Inhibition of CYP3A4 (unknown origin) using midazolam as substrate
Cytochrome P450 3A4 [30] = molecular target: T3, Cytochrome P450 3A4; assay: Inhibition of CYP3A4 (unknown origin) using testosterone as substrate
Calu-6 [31] = assay: Antitumor activity against human Calu-6 cells xenografted in nude mouse assessed as tumor growth inhibition at 30 mg/kg,IT QD for 12 days relative to control; assay type: functional; conditions: Calu-6, 288 h, time 12 day, read-out: TGI
[32] = molecular target: Voltage-gated inwardly rectifying potassium channel KCNH2 (Homo sapiens, UniProt Q12809)
[33] = Cmax in Sprague-Dawley rat assessed as parent compound at 24 mg/kg, IG by LC-MS/MS analysis; assay type: ADME, organism-based, Plasma; set-up: route […], dose 24 mg/kg; conditions: in vivo, po
[34] = Cmax in Sprague-Dawley rat plasma assessed as parent compound at 121 mg/kg, IG by LC-MS/MS analysis; assay type: ADME, organism-based; set-up: route […], dose 121 mg/kg; conditions: in vivo, po
[35] = AUC (0-t) in Sprague-Dawley rat plasma assessed as parent compound at 121 mg/kg, IG by LC-MS/MS analysis; assay type: ADME, organism-based; set-up: dose 121 mg/kg; conditions: in vivo, po

T3 sequence (P08684 whole entry): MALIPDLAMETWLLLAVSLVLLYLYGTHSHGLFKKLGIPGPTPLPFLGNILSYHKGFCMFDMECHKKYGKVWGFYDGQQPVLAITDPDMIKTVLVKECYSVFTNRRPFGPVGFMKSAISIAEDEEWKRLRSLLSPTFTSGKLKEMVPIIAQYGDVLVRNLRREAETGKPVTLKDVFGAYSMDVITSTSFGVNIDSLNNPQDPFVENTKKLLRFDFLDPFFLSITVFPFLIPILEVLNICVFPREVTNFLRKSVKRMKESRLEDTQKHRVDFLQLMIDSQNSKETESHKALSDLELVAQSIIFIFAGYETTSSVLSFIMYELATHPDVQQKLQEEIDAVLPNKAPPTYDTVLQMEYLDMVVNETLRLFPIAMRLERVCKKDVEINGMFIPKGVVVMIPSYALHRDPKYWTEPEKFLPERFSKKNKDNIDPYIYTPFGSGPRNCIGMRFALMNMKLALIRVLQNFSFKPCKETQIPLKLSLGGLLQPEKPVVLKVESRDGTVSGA
Serine/threonine-protein kinase B-raf (Homo sapiens, UniProt P15056, V600E), sequence (P15056 2-766 V600E limits assumed): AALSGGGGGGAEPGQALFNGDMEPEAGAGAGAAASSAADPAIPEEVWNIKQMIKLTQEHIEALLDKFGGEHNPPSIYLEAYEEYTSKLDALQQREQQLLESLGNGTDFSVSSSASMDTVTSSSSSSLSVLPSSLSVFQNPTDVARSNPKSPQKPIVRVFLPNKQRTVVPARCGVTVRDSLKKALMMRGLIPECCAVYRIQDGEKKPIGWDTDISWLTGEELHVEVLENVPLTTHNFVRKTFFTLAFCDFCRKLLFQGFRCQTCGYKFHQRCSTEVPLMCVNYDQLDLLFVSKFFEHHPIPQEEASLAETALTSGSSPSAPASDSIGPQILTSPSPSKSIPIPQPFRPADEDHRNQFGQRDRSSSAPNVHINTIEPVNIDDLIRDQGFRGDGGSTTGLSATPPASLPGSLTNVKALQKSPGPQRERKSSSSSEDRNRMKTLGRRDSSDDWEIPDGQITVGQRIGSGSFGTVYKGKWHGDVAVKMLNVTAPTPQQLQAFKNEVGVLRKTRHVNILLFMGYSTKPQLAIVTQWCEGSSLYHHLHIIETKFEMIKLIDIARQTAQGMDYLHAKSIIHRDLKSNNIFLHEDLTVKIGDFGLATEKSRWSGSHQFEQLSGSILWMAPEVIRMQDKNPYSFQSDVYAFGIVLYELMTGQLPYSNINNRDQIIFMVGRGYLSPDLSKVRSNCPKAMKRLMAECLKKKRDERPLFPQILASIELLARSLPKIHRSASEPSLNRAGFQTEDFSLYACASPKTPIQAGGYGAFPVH
Serine/threonine-protein kinase B-raf (Homo sapiens, UniProt P15056), sequence (P15056 whole entry): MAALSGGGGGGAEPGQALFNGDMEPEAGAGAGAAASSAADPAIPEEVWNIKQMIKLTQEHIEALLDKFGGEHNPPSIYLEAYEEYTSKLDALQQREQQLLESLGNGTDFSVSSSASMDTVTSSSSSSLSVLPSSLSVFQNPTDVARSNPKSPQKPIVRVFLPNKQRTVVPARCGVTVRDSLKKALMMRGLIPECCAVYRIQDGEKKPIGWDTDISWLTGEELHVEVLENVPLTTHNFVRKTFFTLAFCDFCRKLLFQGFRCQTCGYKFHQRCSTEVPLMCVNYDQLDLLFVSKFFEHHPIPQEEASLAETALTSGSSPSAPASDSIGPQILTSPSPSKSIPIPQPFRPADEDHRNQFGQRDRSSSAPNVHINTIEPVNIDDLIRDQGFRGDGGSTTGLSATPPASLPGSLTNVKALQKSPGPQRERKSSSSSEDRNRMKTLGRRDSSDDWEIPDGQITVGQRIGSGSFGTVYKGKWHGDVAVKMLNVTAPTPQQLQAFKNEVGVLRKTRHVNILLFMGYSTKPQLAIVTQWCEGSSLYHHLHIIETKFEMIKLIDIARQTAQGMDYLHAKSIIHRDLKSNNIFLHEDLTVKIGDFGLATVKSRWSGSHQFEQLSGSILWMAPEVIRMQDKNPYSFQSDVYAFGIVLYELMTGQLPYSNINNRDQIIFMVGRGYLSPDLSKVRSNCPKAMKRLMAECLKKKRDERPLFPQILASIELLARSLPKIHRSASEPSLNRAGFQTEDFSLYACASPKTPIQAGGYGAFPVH
RAF proto-oncogene serine/threonine-protein kinase, sequence (P04049 whole entry): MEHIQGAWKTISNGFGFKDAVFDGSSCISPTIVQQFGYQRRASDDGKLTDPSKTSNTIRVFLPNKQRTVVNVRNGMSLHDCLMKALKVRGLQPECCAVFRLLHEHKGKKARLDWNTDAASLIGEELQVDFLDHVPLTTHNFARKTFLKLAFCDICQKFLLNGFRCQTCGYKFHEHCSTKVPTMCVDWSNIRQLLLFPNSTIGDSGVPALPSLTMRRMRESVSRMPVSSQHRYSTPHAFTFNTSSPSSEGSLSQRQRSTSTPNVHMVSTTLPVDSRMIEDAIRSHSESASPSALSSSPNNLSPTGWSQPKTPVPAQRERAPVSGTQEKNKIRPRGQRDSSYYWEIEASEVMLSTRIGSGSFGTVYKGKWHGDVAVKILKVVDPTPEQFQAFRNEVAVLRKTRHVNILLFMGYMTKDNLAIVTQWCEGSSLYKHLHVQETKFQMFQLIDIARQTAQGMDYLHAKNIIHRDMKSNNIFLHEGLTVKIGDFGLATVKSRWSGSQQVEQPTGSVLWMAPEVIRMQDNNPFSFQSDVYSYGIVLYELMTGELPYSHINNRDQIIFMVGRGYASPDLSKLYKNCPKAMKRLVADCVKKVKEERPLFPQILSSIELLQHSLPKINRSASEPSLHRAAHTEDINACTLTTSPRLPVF
Cytochrome P450 2C19, sequence (P33261 whole entry): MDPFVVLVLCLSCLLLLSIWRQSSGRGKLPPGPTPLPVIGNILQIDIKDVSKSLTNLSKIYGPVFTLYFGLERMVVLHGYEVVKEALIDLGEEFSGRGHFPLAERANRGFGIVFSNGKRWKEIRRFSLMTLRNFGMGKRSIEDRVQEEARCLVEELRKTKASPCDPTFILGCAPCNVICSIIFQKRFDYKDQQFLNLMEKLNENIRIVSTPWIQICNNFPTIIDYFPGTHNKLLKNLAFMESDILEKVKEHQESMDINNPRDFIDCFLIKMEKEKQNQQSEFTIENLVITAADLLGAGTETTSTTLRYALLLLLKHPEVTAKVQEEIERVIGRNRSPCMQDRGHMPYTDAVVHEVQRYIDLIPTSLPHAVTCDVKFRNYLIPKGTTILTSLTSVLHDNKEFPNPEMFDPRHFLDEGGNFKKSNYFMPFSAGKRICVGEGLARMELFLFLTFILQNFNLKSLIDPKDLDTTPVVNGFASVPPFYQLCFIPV
Cytochrome P450 2C9, sequence (P11712 whole entry): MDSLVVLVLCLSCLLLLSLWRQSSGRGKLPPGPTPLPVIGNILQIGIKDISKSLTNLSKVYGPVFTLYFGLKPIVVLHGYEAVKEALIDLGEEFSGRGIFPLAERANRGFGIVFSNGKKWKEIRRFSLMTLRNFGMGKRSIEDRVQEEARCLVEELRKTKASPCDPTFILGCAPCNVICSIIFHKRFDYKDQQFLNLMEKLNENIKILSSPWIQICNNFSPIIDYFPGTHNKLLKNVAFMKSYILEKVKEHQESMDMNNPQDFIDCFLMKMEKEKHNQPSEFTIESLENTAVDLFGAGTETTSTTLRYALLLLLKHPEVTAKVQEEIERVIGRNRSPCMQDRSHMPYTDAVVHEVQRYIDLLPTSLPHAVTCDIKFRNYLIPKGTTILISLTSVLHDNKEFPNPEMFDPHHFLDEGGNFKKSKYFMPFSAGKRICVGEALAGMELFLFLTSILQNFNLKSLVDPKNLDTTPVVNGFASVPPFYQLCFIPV
P-gp (ABCB1), sequence (P08183 whole entry): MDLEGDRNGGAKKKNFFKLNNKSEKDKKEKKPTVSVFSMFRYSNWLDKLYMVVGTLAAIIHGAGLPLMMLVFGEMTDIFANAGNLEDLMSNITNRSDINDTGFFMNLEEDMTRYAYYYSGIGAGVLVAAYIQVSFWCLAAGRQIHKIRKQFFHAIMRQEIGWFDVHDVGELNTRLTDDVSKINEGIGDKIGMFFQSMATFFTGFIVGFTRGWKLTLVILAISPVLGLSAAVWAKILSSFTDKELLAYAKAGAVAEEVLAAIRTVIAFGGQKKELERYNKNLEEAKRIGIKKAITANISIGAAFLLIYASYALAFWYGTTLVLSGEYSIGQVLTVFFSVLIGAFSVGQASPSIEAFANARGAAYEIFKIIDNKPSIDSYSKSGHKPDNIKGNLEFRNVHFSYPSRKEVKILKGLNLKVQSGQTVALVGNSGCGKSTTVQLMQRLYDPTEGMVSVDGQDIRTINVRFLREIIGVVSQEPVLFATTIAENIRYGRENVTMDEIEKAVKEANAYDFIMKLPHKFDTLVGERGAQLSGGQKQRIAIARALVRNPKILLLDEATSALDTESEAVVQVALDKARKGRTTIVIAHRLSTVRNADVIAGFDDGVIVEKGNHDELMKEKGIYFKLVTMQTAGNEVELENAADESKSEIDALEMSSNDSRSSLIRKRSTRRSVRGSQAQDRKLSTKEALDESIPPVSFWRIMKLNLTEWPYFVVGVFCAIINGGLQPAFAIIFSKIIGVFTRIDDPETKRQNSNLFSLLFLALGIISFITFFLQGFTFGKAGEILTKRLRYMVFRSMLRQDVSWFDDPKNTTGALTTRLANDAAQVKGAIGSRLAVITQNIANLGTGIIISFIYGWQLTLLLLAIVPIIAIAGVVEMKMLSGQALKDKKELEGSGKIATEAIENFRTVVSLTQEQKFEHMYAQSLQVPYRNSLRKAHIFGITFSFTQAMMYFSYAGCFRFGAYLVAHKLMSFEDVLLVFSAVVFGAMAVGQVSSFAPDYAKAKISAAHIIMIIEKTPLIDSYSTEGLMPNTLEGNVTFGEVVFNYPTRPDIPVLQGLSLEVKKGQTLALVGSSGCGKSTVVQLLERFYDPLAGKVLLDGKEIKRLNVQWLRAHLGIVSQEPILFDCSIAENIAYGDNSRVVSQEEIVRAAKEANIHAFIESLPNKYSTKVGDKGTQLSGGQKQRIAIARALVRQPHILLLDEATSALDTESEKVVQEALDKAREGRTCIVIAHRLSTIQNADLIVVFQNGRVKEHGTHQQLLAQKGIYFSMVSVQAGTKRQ

For `Cc1ccc(NC(=O)c2cc(C(F)(F)F)cnn2)cc1-c1ccc2c(c1)OC1(CCOCC1)CC(=O)N2`, the IC50 [1] was 0.0016 µM, the GI50 (NCI-H358) was 1.4 µM and the Cmax [2] was 0.956 µg/mL. It also gave a half-life [3] of 1.6 h, a clearance [4] of 0.432 L/h/kg and an AUC(0-t) ([5]; Sprague-Dawley, plasma) of 4.7 µg·h/mL. For the same compound, the bioavailability ([6]; Sprague-Dawley) was 101%, the IC50 [7] was 0.01 µM and the IC50 [8] was 0.0057 µM. The GI50 (A-375) was 0.17 µM, the GI50 (Calu-6 [9]) was 0.4 µM and the GI50 (SK-MEL-2) was 0.32 µM. For the same compound, the half-life [10] was 1.77 h, the half-life [11] was greater than 2.32 h and the half-life [12] was 1.24 h. It also gave a fraction unbound [13] of 0.006, a fraction unbound [14] of 0.018 and a fraction unbound [15] of 0.06. For the same compound, the Cmax [16] was 2.81 µg/mL, the AUC(0-t) [17] was 21.8 µg·h/mL and the TGI (Calu-6 [18]) was “Dose-Dependent Effect”. The Activity [19] was “Non-Toxic”, the inhibition [20] was “Active” and the Cmax [21] was 0.953 µg/mL. The half-life [22] was 3.6 h, the clearance [23] was 0.408 L/h/kg and the AUC(0-t) [24] was 5.41 µg·h/mL. It also gave a bioavailability [25] of 112%.

`Cc1ccc(NC(=O)c2ccnc(C(F)(F)F)c2)cc1-c1ccc2c(c1)OC1(CCOCC1)CC(=O)N2` gave an IC50 [1] of 0.0051 µM, a GI50 (NCI-H358) of 1.7 µM and a solubility [26] of 0.9 µM (≈ 0.46 µg/mL). For the same compound, the Cmax [2] was 0.0473 µg/mL, the AUCt ([5]; in vivo) was 0.00312 µg·h/mL and the F [6] was 18.7%. For the same compound, the IC50 [7] was 0.012 µM, the IC50 [8] was 0.011 µM and the GI50 (A-375) was 0.15 µM. For the same compound, the GI50 (Calu-6 [9]) was 0.35 µM, the GI50 (SK-MEL-2) was 0.23 µM and the half-life [10] was 2.32 h. For the same compound, the half-life [11] was greater than 2.32 h, the half-life [12] was 0.748 h and the fraction unbound [13] was 0.004. For the same compound, the fraction unbound [14] was 0.012, the fraction unbound [15] was 0.009 and the Papp A→B [27] was 157 nm/s. The Papp B→A [28] was 398 nm/s, the efflux ratio (P-gp (ABCB1)) was 2.53 and the IC50 (Cytochrome P450 1A2) was greater than 30 µM. For the same compound, the IC50 (Cytochrome P450 2C9) was 10.3 µM, the IC50 (Cytochrome P450 2C19) was greater than 30 µM and the IC50 (Cytochrome P450 2D6) was greater than 30 µM. For the same compound, the IC50 (Cytochrome P450 3A4 [29]) was greater than 30 µM, the IC50 (Cytochrome P450 3A4 [30]) was 13.2 µM and the inhibition in vivo at 30 mg/kg (Calu-6 [31]) was 41%. The IC50 [32] was 3 µM.

`Cc1ccc(NC(=O)c2cc(C(F)(F)F)cnn2)cc1-c1ccc2c(c1)OC1(CCOCC1)CC(=O)N2COP(=O)(O)O` gave a Cmax [33] of 2.848 µg/mL, a Cmax [34] of 10.74 µg/mL and an AUCt [35] of 132.78 µg·h/mL.
